How the values were obtained:
[1] = tested on: PC-3; assay: NCI-60 screen, Prostate Cancer panel; format: cell-based; details: Homo sapiens, PC-3, 48 h
[2] = tested on: KM12; assay: NCI-60 screen, Colon Cancer panel; format: cell-based; details: Homo sapiens, KM12, 48 h
[3] = tested on: MDA-MB-468; assay: NCI-60 screen, Breast Cancer panel; format: cell-based; details: Homo sapiens, MDA-MB-468, 48 h
Description: EC 330 was also tested using the NCI-60 Screening Methodology. The human tumor cell lines of the cancer screening panel are grown in RPMI 1640 medium containing 5% fetal bovine serum and 2 mM L-glutamine. For a typical screening experiment, cells are inoculated into 96 well microtiter plates in 100 μL at plating densities ranging from 5,000 to 40,000 cells/well depending on the doubling time of individual cell lines. After cell inoculation, the microtiter plates are incubated at 37° C., 5% CO2, 95% air and 100% relative humidity for 24 h prior to addition of experimental drugs. […]
Following drug addition, the plates are incubated for an additional 48 h at 37° C., 5% CO2, 95% air, and 100% relative humidity. […] Bound stain is subsequently solubilized with 10 mM trizma base, and the absorbance is read on an automated plate reader at a wavelength of 515 nm. […] Using the seven absorbance measurements [time zero, (Tz), control growth, (C), and test growth in the presence of drug at the five concentration levels (Ti)], the percentage growth is calculated at each of the drug concentrations levels. Percentage growth inhibition is calculated as: [(Ti−Tz)/(C−Tz)]×100 for concentrations for which Ti>/=Tz [(Ti−Tz)/Tz]×100 for concentrations for which Ti<Tz.
Three dose response parameters are calculated for each experimental agent. […]

[4] = tested on: NCI/ADR-RES; assay: NCI-60 screen, Ovarian Cancer panel; format: cell-based; details: Homo sapiens, 48 h
[5] = tested on: OVCAR-4; assay: NCI-60 screen, Ovarian Cancer panel; format: cell-based; details: Homo sapiens, OVCAR-4, 48 h
[6] = tested on: M14; assay: NCI-60 screen, Melanoma panel; format: cell-based; details: Homo sapiens, M14, 48 h
[7] = tested on: SW-620; assay: NCI-60 screen, Colon Cancer panel; format: cell-based; details: Homo sapiens, SW-620, 48 h
[8] = tested on: K-562; assay: NCI-60 screen, Leukemia panel; format: cell-based; details: Homo sapiens, K562, 48 h
[9] = tested on: MDA-MB-231 (TNBC cells); assay: Short term (72 h) cytotoxicity assay; format: cell-based; details: Homo sapiens; MDA-MB-231, 72 h cytotoxicity
[10] = tested on: IGROV1 (Ovarian) Xenograft; assay: Tumor xenograft study, IGROV1; format: in vivo, mice
Description: Uniform suspensions of human breast cancer MDA-MB-231 and human ovarian cancer IGROV1 cells (2×10^6) in 100 μL (0.02 carboxymethyl cellulose in phosphate buffered saline) were injected subcutaneously into the right and left flanks of 4- to 5-week-old female athymic nude mice (Charles River Laboratories). After 10 days, when the tumor […] reaches 100 mm^3, the mice were randomly allocated to 3 groups of each containing 6 animals. […] All drug was suspended in PBS followed by sonication (15 seconds with an intermittent interval of 5 seconds) for 1 minute. Tumors were allowed to reach palpability before drug intervention. Tumor size was measured every 3 days using digital Vernier Calipers and tumor volume was calculated using the ellipsoid formula [D×(d2)]/2, where D is the large diameter of the tumor and d represents the small diameter. On day 31, the mice were euthanized and tumors were harvested for protein and gene expression studies. […] FIG. 6B depicts a graph of tumor volume vs. time for the administration of EC300 at 2.5 mg/kg twice weekly in the MDA-MB-231 (TNBC) Xenograft. […] FIG. 7 depicts a graph of tumor volume vs. time for the administration of EC300 at 5 mg/kg 5 days per week in the IGROV1 (Ovarian) Xenograft. […] STAT3 phosphorylation is reduced in tumors that underwent treatment compared to control which is an indication of LIF downstream target.

[11] = read-out: GI50 (log10GI50) (converted)
[12] = read-out: LC50 (log10LC50) (converted)

Structure (SMILES): C#CC(F)(F)[C@]1(O)CCC2C3CCC4=CC(=O)CCC4=C3C(c3ccc(C4CC4)cc3)C[C@@]21C (stereo partly drawn) [EC330, 17α-(1,1-difluoro-2-propyn-1-yl)-17β-hydroxy-11β-[4-p-(cyclopropyl)phenyl]estra-4,9-dien-3-one]
- GI50 [1, 11]: 0.513 µM
- CC50 [1, 12]: > 100 µM
- GI50 [2, 11]: < 0.01 µM
- CC50 [2, 12]: 44.7 µM
- CC50 [3, 12]: 50.1 µM
- GI50 ([3]; SRB, read-out: GI50 (log10GI50) (converted)): 0.204 µM
- GI50 [4, 11]: 0.0257 µM
- CC50 [4, 12]: > 100 µM
- GI50 [5, 11]: 3.89 µM
- CC50 [5, 12]: > 100 µM
- GI50 [6, 11]: 2.75 µM
- CC50 [6, 12]: > 100 µM
- GI50 [7, 11]: 2.51 µM
- CC50 [7, 12]: > 100 µM
- GI50 [8, 11]: 2.19 µM
- CC50 [8, 12]: > 100 µM
- IC50 [9]: 0.034 µM
- antitumor activity ([10]; 5 mg/kg (5 days per week), 4 weeks, intraperitoneally): potent antitumor activity
- apoptosis in xenograft tumors ([10]; IGR-OV1 xenograft tumors, FIG. 8): induced apoptosis dose dependently
- tumor growth ([10]; ovarian cancer model): significantly reduced
- STAT3 phosphorylation in tumors ([10]; treated vs. control): reduced

From patent US10053485B2, “Cytotoxic agents that preferentially target leukemia inhibitory factor (LIF) for the treatment of malignancies and as new contraceptive agents” (Evestra, Inc., priority 2015, dated 2018)
